This is an account of results in patent US8481551B2, “Gyrase and topoisomerase IV inhibitors” (Vertex Pharmaceuticals Incorporated, priority 2011, dated 2013).

The subject of series [1] is Mycobacterium tuberculosis. As to the kind of experiment: Mycobacterium tuberculosis serum shift MIC assay (Protocol 5). Particulars: ATCC 35801 / ERDMAN. The series is classed as cell-based. The text has this:
Protocol 5. Protocol for Mycobacterium tuberculosis Serum Shift MIC Assay
Media Prep: • 1. […] It was important that all media and supplements were sterilized prior to MICs. • 2. Prepared all media below and inoculated as described in next section. Tested all compounds against Mtb using each media. • a. […] 7H9+0.2% glycerol+2 g/L dextrose+0.85 g/L NaCl+0.003 g/L catalase (0% FBS). • c. 2×7H9+0.2% glycerol+2 g/L dextrose+0.85 g/L NaCl+0.003 g/L catalase combined with equal volume Fetal Bovine Serum (50% FBS).
Inoculum Prep: • 1. […] Typically plates were two to three weeks of age when used for this assay due to the slow growth of this organism in culture. • 2. Vortexed well, then sonicated in water bath for 30 sec providing a suspension of ˜10^8 cells/ml. […] Prepared inoculum in each of the three media formulations by diluting the BBL Prompt suspension 1/200 (for example: transferred 0.2 ml of cells to 40 ml of medium) to obtain a starting cell density of ˜10^6 cells/ml. • 4.
After 24 hours the fluorescence of each well was measured at Excitation 492 nm, Emission 595 nm.
Percent inhibition by a given compound was calculated as follows: Percent inhibition=100−([well fluorescence-average background fluorescence]/[DMSO control−average background fluorescence]×100).

The next series relates to Moraxella catarrhalis. Kind of series: Gyrase MIC against Gram negatives, microdilution broth method (Protocol 2). The format is cell-based. Particulars: for MIC90 / MIC Range: Moraxella catarrhalis, 26 isolates tested. For orientation: Broth dilution looks for growth in wells or tubes with falling amounts of substance.
For another series, the system named is Bacillus subtilis. As to the kind of experiment: Gyrase MIC, microdilution broth method (Protocol 1). The series is classed as cell-based.
The subject of the next series is Clostridium difficile. Kind of series: Gyrase MIC, agar dilution method (Protocol 3). Particulars: for MIC / MIC90: Clostridioides difficile; for MIC: ATCCBAA1382, Clostridium difficile ATCC BAA-1382; for MIC90 / MIC Range: Clostridium difficile, 16 isolates tested. The series is classed as cell-based. (Agar dilution tests growth on a series of plates holding different concentrations.)

Series [2] can be described thus: Oral range finding toxicity and toxicokinetic study in male cynomolgus monkeys. The series is classed as in vivo, Cynomolgus monkeys (Macaca Fascicularis). An excerpt:
Cynomolgus monkeys (Macaca Fascicularis) were obtained from Primus Bio-Resources Inc. of PinCourt, Quebec, Canada. Cynomolgus monkeys were chosen because they are a non-rodent species that is commonly used for nonclinical toxicity evaluations.
Eight (2 naive and 6 non-naïve) males were used in the study. The animals were young adults and weighed between 2 to 4 kg at the onset of dosing.
The first day of dosing was designated as Day 1 of the study. The actual volume administered to each animal was calculated and adjusted based on the most recent body weight of each animal.
Cage-side clinical signs (ill health, behavioral changes etc.) were recorded at least once daily during the study.
Body weights were recorded for all animals prior to group assignment and on Days 1 (prior to dosing), 3 and 7 as well as terminally prior to necropsy (fasted).
Electrocardiograms (bipolar limb leads I, II and III, and augmented unipolar leads aVR, aVL and aVF) were obtained for all monkeys once during the pre-treatment period and again on Day 7 (post-dosing).
The tracings were assessed for gross changes indicative of cardiac electrical dysfunction. The potential presence of abnormalities involving heart rate (lead II), sinus and atrioventricular rhythm or conductivity were determined. Heart rate, PR interval, QRS duration, QT and QTc intervals values were measured.
A series of 7 blood samples (approximately 0.5 mL each) were collected from each monkey on Days 1 and 7 at the following time points: predose, 30 minutes and 2, 3, 6, 12 and 24 hours post-dose. […] Tubes were placed on wet ice until ready for processing. […]
The following parameters were measured on blood samples collected into EDTA anticoagulant: red blood cell count, mean corpuscular hemoglobin (calculated), hematocrit (calculated), mean corpuscular volume, hemoglobin, morphology of cells, white blood cell count, platelet count, white blood cell differential (absolute), reticulocyte (absolute and percentage) and mean corpuscular hemoglobin concentration (calculated).
Activated partial thromboplastin time and prothrombin time were measured on blood samples collected into citrate anticoagulant.
The following parameters were measured on blood samples collected into tubes containing clotting activator: a/g ratio (calculated), creatinine, alanine aminotransferase, globulin (calculated), albumin, glucose, alkaline phosphatase, phosphorus (inorganic), aspartate aminotransferase, potassium, bilirubin (total), sodium, calcium, total protein, chloride, triglycerides, cholesterol (total), urea, gamma glutamyltransferase and sorbitol dehydrogenase.
The following parameters were measured on urine samples: bilirubin, protein, blood, sediment microscopy, color and appearance, specific gravity, glucose, urobilinogen, ketones, volume and pH. […]

Series [3] has as its system Stenotrophomonas maltophilia. Kind of series: Gyrase MIC against Gram negatives, microdilution broth method (Protocol 2). The series is classed as cell-based.
The next series has as its system M. abscessus. Kind of series: MIC determination procedure for Mycobacterium species (Protocol 4). The format is cell-based. Particulars: Mycobacteroides abscessus.
The target of the next series is S. aureus DNA gyrase (Staphylococcus aureus, UniProt P0A0K8). As to the kind of experiment: DNA gyrase ATPase assay. Particulars: 90 nM enzyme, 0.9 mM ATP, 30° C.
S. aureus DNA gyrase, sequence (P20831 whole entry): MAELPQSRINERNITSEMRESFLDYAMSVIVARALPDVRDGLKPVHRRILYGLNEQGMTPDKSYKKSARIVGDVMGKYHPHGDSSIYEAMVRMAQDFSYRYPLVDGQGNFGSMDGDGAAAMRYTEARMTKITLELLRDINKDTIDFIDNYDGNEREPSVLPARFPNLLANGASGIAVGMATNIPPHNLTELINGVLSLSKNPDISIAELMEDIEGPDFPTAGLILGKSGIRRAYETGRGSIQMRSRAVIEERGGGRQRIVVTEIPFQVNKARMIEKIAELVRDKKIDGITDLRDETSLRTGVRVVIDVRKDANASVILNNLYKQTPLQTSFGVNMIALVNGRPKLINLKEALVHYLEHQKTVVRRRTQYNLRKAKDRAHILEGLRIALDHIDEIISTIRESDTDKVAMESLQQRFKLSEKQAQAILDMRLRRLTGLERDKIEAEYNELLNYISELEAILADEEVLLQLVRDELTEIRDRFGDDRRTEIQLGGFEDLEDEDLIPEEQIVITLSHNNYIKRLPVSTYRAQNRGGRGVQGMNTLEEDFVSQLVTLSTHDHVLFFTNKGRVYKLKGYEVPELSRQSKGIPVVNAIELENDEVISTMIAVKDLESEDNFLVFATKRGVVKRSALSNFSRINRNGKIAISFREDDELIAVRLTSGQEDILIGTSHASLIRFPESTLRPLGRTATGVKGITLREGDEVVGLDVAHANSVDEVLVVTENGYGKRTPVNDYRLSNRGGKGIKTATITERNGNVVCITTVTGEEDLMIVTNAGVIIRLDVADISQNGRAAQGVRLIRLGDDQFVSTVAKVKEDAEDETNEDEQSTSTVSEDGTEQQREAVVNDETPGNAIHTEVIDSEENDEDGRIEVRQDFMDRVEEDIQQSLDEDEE
S. aureus DNA gyrase, sequence (P0A0K8 whole entry): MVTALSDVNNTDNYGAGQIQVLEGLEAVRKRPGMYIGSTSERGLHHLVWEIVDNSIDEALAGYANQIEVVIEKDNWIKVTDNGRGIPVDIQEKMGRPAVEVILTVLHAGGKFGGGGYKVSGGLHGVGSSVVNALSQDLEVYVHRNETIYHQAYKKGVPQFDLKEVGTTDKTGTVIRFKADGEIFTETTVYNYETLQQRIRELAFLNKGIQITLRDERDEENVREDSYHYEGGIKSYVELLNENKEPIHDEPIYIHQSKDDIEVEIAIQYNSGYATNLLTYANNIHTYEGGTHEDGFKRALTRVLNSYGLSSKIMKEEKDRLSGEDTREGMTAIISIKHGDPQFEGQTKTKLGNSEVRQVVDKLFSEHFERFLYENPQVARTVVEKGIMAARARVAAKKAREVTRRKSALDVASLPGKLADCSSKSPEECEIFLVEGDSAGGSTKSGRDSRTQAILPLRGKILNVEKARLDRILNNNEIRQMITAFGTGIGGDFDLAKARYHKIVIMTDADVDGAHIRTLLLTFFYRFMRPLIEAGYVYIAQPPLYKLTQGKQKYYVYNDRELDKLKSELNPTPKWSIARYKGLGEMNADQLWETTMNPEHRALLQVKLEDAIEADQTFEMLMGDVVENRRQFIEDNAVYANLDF
The target in another series is S. aureus TopoIV enzyme (Staphylococcus aureus, UniProt P0C1S7). Kind of series: DNA Topo IV ATPase assay. The series is classed as biochemical. Conditions: 64 nM enzyme, 30° C., Morrison Equation fit.
S. aureus TopoIV enzyme, sequence (P0C1S7 whole entry): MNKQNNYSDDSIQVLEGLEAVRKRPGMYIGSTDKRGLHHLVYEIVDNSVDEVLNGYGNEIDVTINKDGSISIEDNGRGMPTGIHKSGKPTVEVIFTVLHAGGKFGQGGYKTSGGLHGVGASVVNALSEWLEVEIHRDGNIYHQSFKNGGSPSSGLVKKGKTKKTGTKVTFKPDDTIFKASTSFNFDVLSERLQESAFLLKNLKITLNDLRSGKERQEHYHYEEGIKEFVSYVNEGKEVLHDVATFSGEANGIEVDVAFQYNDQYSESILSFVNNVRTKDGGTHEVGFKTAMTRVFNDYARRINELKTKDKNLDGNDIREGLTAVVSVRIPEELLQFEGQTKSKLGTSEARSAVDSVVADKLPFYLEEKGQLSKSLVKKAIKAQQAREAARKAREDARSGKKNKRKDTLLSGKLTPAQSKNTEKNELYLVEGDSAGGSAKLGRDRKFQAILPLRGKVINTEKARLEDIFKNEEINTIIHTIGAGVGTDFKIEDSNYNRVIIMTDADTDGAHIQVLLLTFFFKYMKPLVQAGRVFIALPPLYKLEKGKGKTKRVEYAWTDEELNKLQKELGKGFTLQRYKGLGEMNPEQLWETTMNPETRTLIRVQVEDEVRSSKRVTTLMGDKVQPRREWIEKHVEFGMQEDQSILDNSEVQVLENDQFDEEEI
S. aureus TopoIV enzyme, sequence (P0C1U9 whole entry partner): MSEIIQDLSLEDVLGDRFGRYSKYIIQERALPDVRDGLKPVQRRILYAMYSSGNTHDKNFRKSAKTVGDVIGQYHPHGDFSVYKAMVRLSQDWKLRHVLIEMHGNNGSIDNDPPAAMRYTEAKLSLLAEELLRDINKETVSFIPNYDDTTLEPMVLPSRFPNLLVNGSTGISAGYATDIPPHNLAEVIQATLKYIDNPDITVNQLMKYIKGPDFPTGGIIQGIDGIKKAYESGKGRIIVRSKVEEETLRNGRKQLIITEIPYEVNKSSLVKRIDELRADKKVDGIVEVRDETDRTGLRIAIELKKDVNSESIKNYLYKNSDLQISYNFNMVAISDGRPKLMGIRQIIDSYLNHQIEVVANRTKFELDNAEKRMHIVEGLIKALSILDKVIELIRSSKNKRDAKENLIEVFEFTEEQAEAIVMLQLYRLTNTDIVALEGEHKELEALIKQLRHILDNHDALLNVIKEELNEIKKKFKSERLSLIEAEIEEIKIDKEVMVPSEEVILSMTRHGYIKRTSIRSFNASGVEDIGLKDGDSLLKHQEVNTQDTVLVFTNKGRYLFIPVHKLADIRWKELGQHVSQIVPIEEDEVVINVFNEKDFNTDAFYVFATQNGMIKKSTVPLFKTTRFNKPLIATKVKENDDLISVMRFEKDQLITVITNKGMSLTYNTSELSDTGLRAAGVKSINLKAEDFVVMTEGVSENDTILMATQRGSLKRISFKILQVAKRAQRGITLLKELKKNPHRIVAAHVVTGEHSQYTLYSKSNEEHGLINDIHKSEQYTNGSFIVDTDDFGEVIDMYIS
[4] abbreviates: M. tuberculosis Erdman ATCC 35801, read-out: MIC.
Setting [5] is: M. tuberculosis Erdman ATCC 35801 with Mouse Serum.
Setting [6] is: ATCC25238, Moraxella catarrhalis ATCC 25238.
[7] abbreviates: ATCC49143, Moraxella catarrhalis ATCC 49143.
The mark [8] stands for this setting: ATCC6051, Bacillus subtilis (168) ATCC 6051.
Where [9] appears, read: ATCC6638, Bacillus subtilis ATCC 6638.

SMILES strings stand for the structures. Where a name gives a salt, the structure may show the parent alone. Read-outs that look alike come from different tables or passages of the source.

Usually MIC stands for the lowest concentration that inhibits growth of the organism. As a reminder, the MIC90 is the lowest concentration that inhibits either 90% of growth or 90% of the strains tested, depending on the study. In the case of `CCNC(=O)Nc1nc2cc(-c3cnc(C(C)(C)O)nc3)cc([C@H]3CCCO3)c2[nH]1` [Compound 13, methanesulfonic acid salt of 1-ethyl-3-[5-[2-(1-hydroxy-1-methyl-ethyl)pyrimidin-5-yl]-7-[(2R)-tetrahydrofuran-2-yl]-1H-benzimidazol-2-yl]urea], the minimum inhibitory concentration (MIC) in series [1] (setting [4]) is 0.045 µg/mL; in [1] (setting [5]) it was 2 µg/mL; with Moraxella catarrhalis (setting [6]), 0.071 µg/mL; against Moraxella catarrhalis (setting [7]), 0.04 µg/mL; against Bacillus subtilis (setting [8]), above 8 µg/mL; against Bacillus subtilis (setting [9]) it was above 8 µg/mL. The MIC against Clostridium difficile turned out to be 1 µg/mL. Further, the MIC90 with Moraxella catarrhalis amounted to 0.12 µg/mL; against Clostridium difficile it was 1 µg/mL. Further, the “MIC Range” value was in the range of 0.015 to 0.12 µg/mL in the series on Moraxella catarrhalis and 0.5 to 16 µg/mL against Clostridium difficile.
For the compound `CCNC(=O)Nc1nc2cc(-c3cnc(C(C)(C)O)nc3)c(F)c([C@H]3CCCO3)c2[nH]1` [Compound 23, 1-ethyl-3-[6-fluoro-5-[2-(1-hydroxy-1-methyl-ethyl)pyrimidin-5-yl]-7-[(2R)-tetrahydrofuran-2-yl]-1H-benzimidazol-2-yl]urea], in series [2] (doses up to 200 mg/kg/day), the “clinical signs, body weights, electrocardiography, clinical pathology, organ weights” value is “no clinical signs, or changes in body weights, electrocardiography parameters, clinical pathology parameters, or organ weights” and the “macroscopic or microscopic findings” value is listed as “no macroscopic or microscopic findings”. The “no observed effect level (NOEL)” value in series [2] (male Cynomolgus monkeys, oral gavage once per day for 7 days) is reported as 200 mg/kg/day. Also, the “exposures for different dosage levels” value in series [2] (male Cynomolgus monkeys, toxicokinetics) is listed as “dose related”.
As to `CCNC(=O)Nc1nc2cc(-c3cnc(C(C)(C)O)nc3)c(F)c([C@H]3CCCO3)c2[nH]1` [Compound 23A, methanesulfonic acid salt of 1-ethyl-3-[6-fluoro-5-[2-(1-hydroxy-1-methyl-ethyl)pyrimidin-5-yl]-7-[(2R)-tetrahydrofuran-2-yl]-1H-benzimidazol-2-yl]urea], the MIC in series [1] (setting [4]) is 0.03 µg/mL; in [1] (setting [5]) it was 0.5 µg/mL; with Moraxella catarrhalis (setting [6]), at most 0.016 µg/mL; in the series on Moraxella catarrhalis (setting [7]), at most 0.016 µg/mL; in series [3] (ATCCBAA84, Stenotrophomonas maltophilia ATCC BAA-84), above 8 µg/mL; in [3] (Stenotrophomonas maltophilia ATCC13637), above 8 µg/mL. Also, the MIC turned out to be 2 µg/mL with M. abscessus (M. abscessus BB1); 1 µg/mL against M. abscessus (M. abscessus BB2); 0.5 µg/mL against M. abscessus (M. abscessus BB3); 2 µg/mL in the series with M. abscessus (M. abscessus BB4); 0.5 µg/mL in the series with M. abscessus (M. abscessus BB5); 0.5 µg/mL against M. abscessus (M. abscessus BB6). In addition, the MIC with M. abscessus (M. abscessus BB8) was determined as 0.5 µg/mL; with M. abscessus (M. abscessus LT 949) it was 1 µg/mL; in the series with M. abscessus (M. abscessus MC 5812) it was 1 µg/mL; in the series on M. abscessus (M. abscessus MC 5901), 1 µg/mL; against M. abscessus (M. abscessus MC 5908 (second listing, r109)), 1 µg/mL; against M. abscessus (M. abscessus MC 5922), 0.25 µg/mL. In addition, the MIC with M. abscessus (M. abscessus MC 5931) amounted to 0.5 µg/mL; against M. abscessus (M. abscessus MC 5960) it was 0.5 µg/mL; against M. abscessus (M. abscessus MC 6005), 1 µg/mL; against M. abscessus (M. abscessus MC 6025), 0.75 µg/mL; against M. abscessus (M. abscessus MC 6111), 0.5 µg/mL; in the series on M. abscessus (M. abscessus MC 6136), 0.5 µg/mL. Also, the MIC against M. abscessus (M. abscessus MC 6142) was 0.5 µg/mL; in the series with M. abscessus (M. abscessus MC 6153), 1 µg/mL; with Bacillus subtilis (setting [8]), 4 µg/mL; in the series on Bacillus subtilis (setting [9]), 2 µg/mL; against Clostridium difficile, 0.38 µg/mL. Moreover, the values for the MIC90 against Moraxella catarrhalis and against Clostridium difficile were 0.03 µg/mL and 0.25 µg/mL, respectively. Moreover, the “MIC Range” value was “≦0.004-0.03^ μg/ml” against Moraxella catarrhalis and 0.06-4^ μg/ml in the series on Clostridium difficile.
Usually IC50 stands for the concentration that inhibits the measured activity by half. One may read the Ki as a measure of affinity in units of concentration, obtained from inhibition or displacement. Read a low Ki as higher affinity. In the case of `CCNC(=O)Nc1nc2cc(-c3cnc(C(C)(C)OP(=O)([O-])[O-])nc3)c(F)c([C@H]3CCCO3)c2[nH]1.[Na+].[Na+]` [Compound W, disodium (R)-2-(5-(2-(3-ethylureido)-6-fluoro-7-(tetrahydrofuran-2-yl)-1H-benzo[d]imidazol-5-yl)pyrimidin-2-yl)propan-2-yl phosphate], the IC50 on S. aureus DNA gyrase was 54 nM; against S. aureus TopoIV enzyme, 150 nM. At S. aureus TopoIV enzyme, the Ki was determined as 30 nM.
